# Reference: patent US20240132521A1, “COMPOUNDS AND METHODS FOR MODULATING HER2” (Iambic Therapeutics, Inc., priority 2022, published 2024)
# Tests used:
# [1] = target: T1, wtEGFR (Homo sapiens, UniProt P00533); assay: HotSpot radiometric kinase activity assay, wtEGFR; settings: biochemical activity, 4 nM wtEGFR, 10 μM 33P-ATP, 2 hours, read-out: EGFR WT IC50
# T1 construct: purchased Invitrogen PR7295B
# Experimental: (§1) The purpose of the wtERBB2, ERBB2-A775_G776insYVMA (ERBB2YVMA), wtEGFR biochemical assay was to evaluate the inhibition (% inhibition and IC50 values) of the small molecule inhibitors by using the “HotSpot” radiometric kinase activity assay. HotSpot assays monitor the production of kinase substrate by the radioactive gamma phosphate of adenosine triphosphate (33P-ATP) during biochemical reactions. HotSpot assays was performed in steps upon completion of the kinase reaction: deposition of a reaction mixture aliquot onto P81 ion exchange paper, extensive washing of the aforementioned P81 paper using phosphoric acid to remove unbound radiolabeled 33P-ATP from the P81 paper, and finally visualization and quantification of the dried P81 paper utilizing a phosphoimager. […] Typical reaction solutions (10 μL, final reaction volume) contained the following buffer conditions: 20 mM Hepes (pH 7.5), 10 mM MgCl2, 1 mM EGTA, 0.01% Brij35, 0.02 mg/mL BSA, 0.1 mM Na3VO4, 2 mM DTT, 1% DMSO. The assay was primed by preparing a fresh 0.2 mg/mL solution of pEY (Sigma Cat: P7244) substrate in the reaction buffer and supplementing that solution with […] of MnCl2 as substrate cofactor (Sigma Cat: M9522). The kinase of interest was then added to the solution at the appropriate concentration (30 nM wtERBB2 from, or 20 nM ERBB2YVMA, or 4 nM wtEGFR) and gently mixed prior to delivery of compound in 100% DMSO by acoustic dispensing (Beckman Echo550). Compound, Kinase, and substrate were allowed to incubate for 20 min at room temperature prior to the initiation of the reaction by addition of 33P-ATP (PerkinElmer Cat: NEG602, final conc 10 μM). […] IC50 determinations were made from a plot of kinase activity as a function of inhibitor concentration fit to the 4-parameter IC50 equation with the enzyme concentration held constant using GraphPad Prism (San Diego).
# [2] = target: T2, ERBB2-A775_G776insYVMA (ERBB2YVMA) (Homo sapiens, UniProt P04626, INS775YVMA); assay: HotSpot radiometric kinase activity assay, ERBB2YVMA; settings: biochemical activity, 20 nM ERBB2YVMA, 10 μM 33P-ATP, 2 hours, read-out: HER2 - YVMA IC50
# T2 construct: purchased SignalChem E27-13BG
# T2 sequence (P04626 with tags, fused parts or gaps INS775YVMA limits assumed): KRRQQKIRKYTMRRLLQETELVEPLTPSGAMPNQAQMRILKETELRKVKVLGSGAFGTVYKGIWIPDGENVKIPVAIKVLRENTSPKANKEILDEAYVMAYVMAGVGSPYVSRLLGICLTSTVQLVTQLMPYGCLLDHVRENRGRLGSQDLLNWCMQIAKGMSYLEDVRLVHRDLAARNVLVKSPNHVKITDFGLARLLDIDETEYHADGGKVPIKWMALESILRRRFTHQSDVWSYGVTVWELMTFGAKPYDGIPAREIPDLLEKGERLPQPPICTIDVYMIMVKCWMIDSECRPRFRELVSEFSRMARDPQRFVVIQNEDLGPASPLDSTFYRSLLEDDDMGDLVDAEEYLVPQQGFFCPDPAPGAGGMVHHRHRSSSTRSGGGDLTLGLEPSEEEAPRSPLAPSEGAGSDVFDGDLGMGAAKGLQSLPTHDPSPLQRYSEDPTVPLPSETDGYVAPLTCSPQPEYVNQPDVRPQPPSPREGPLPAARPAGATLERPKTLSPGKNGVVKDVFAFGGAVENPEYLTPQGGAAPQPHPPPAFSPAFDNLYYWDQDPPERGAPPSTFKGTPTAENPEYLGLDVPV
# Experimental: as §1
# [3] = target: BaF3_HER2WT cells (Homo sapiens, UniProt P04626); assay: Cell growth inhibition assay (CellTiterGlo), BaF3_HER2WT; type: cell-based; settings: 3-day treatment, CellTiterGlo, read-out: Cell growth inhibition activity, HER2 WT
# Chain of BaF3_HER2WT cells (P04626 whole entry, change not shown): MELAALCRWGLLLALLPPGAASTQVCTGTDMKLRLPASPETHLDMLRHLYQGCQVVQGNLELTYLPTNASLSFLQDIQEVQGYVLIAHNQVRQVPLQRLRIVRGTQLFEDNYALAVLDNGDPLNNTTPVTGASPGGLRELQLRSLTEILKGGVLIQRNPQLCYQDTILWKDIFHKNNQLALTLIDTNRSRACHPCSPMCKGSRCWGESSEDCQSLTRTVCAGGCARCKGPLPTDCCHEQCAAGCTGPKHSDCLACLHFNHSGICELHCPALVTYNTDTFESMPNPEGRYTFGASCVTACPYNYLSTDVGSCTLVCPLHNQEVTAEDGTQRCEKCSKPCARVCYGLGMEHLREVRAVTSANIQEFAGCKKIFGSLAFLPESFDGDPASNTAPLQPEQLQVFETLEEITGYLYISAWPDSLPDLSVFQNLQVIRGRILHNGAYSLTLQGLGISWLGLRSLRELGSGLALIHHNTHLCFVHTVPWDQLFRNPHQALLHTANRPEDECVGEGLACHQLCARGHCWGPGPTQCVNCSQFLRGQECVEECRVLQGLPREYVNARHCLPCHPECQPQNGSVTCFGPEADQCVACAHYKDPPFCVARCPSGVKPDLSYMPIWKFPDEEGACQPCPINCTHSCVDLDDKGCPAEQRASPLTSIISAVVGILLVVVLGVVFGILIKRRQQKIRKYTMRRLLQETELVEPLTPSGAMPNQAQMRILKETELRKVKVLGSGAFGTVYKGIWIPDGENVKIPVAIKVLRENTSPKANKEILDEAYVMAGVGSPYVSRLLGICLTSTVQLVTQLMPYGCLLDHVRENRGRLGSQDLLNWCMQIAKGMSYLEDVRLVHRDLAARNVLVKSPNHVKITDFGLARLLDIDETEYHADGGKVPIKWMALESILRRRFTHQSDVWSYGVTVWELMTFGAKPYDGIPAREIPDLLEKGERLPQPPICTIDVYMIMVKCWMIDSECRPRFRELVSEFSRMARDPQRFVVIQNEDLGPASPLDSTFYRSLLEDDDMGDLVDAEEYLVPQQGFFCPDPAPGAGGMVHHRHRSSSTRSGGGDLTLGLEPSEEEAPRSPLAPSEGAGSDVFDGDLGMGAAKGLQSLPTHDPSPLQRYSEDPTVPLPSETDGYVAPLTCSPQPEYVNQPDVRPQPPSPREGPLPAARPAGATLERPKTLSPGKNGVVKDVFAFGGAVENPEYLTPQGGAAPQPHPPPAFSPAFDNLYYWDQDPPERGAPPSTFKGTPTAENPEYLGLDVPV
# [4] = target: BaF3_HER2YVMA cells (Homo sapiens, UniProt P04626, DUP772-775, cells depend on it); assay: Cell growth inhibition assay (CellTiterGlo), BaF3_HER2YVMA; type: cell-based; settings: 3-day treatment, CellTiterGlo, read-out: Cell growth inhibition activity, HER2 - YVMA
# Chain of BaF3_HER2YVMA cells (P04626 with tags, fused parts or gaps DUP772-775): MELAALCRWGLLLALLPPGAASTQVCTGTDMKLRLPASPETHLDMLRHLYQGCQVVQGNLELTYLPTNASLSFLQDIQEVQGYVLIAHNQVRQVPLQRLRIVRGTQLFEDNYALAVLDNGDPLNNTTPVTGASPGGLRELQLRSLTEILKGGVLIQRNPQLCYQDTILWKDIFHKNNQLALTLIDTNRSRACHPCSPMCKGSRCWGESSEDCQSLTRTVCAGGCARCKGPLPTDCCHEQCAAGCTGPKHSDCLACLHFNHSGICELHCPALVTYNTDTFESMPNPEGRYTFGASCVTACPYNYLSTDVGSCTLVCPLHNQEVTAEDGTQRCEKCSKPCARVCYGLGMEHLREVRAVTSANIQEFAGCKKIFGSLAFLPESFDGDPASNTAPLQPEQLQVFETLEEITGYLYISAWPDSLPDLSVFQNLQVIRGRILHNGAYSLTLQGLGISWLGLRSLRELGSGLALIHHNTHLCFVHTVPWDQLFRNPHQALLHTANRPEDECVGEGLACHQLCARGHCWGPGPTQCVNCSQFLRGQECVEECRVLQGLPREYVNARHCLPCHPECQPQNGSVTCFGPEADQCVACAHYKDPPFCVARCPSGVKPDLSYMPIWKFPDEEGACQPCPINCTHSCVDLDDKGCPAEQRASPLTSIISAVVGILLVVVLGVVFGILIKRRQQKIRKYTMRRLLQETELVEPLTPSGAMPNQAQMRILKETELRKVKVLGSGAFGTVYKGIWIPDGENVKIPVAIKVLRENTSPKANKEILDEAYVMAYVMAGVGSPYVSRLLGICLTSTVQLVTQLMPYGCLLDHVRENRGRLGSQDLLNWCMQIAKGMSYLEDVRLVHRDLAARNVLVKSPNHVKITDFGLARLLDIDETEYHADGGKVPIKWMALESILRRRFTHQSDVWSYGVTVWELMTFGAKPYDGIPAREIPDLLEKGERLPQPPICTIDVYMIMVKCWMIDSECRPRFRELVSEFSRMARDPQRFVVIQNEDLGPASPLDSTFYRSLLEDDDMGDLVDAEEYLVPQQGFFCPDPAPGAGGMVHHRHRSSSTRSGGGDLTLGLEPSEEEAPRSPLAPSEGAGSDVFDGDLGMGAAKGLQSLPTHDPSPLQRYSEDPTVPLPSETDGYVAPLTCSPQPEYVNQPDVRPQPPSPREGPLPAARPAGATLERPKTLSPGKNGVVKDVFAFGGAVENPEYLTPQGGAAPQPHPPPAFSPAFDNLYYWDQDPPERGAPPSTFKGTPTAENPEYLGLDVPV
# [5] = target: BaF3_EGFRWT cells (Homo sapiens, UniProt P00533); assay: Cell growth inhibition assay (CellTiterGlo), BaF3_EGFRWT; type: cell-based; settings: 3-day treatment, CellTiterGlo, read-out: Cell growth inhibition activity, EGFR WT
# Chain of BaF3_EGFRWT cells (P00533 whole entry, change not shown): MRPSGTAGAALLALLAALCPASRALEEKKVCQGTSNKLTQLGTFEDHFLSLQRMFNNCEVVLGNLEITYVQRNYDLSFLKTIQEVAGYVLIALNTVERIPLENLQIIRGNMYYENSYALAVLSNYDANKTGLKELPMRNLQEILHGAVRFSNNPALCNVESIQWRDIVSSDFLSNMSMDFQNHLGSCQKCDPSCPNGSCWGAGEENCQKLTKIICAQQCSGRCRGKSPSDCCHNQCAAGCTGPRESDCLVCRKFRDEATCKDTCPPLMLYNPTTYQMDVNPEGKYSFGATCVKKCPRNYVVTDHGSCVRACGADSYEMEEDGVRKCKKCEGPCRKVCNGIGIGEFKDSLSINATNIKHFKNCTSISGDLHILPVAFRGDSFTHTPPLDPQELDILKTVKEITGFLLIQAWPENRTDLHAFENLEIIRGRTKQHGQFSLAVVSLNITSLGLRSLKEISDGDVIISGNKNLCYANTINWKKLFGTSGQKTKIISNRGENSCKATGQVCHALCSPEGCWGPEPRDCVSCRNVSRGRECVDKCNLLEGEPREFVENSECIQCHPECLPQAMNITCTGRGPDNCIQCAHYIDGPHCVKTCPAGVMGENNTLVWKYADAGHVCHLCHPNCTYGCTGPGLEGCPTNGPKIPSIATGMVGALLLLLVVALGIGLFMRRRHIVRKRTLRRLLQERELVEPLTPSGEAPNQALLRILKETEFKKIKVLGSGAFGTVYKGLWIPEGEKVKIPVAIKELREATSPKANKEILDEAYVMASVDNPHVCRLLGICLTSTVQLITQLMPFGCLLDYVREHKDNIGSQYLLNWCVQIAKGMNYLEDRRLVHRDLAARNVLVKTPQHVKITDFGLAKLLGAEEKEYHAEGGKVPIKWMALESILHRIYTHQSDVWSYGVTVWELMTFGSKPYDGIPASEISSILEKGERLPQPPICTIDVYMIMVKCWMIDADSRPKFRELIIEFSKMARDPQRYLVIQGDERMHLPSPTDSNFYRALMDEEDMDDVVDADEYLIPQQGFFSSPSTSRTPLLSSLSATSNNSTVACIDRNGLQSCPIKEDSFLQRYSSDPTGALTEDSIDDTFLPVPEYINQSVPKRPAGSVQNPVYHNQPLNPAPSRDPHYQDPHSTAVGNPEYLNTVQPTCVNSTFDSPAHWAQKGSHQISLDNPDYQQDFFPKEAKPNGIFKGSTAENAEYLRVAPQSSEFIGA
Structure (SMILES),IC50 [1],IC50 [2],GI50 [3],GI50 [4],GI50 [5]
"C=CC(=O)N1CC(n2cc(-c3ccn4ncnc(Nc5ccc(Oc6ccn7ncnc7c6)c(C)c5)c34)cn2)C1 [Example 2, 1-(3-(4-(4-((4-([1,2,4]triazolo[1,5-a]pyridin-7-yloxy)-3-methylphenyl)amino)pyrrolo[2,1-f][1,2,4]triazin-5-yl)-1H-pyrazol-1-yl)azetidin-1-yl)prop-2-en-1-one]",–,< 200 nM,< 200 nM,< 200 nM,1500 to 5000 nM
"C=CC(=O)NC1CCN(C(=O)c2ccn3ncnc(Nc4ccc(Oc5ccn6ncnc6c5)c(C)c4)c23)CC1 [Example 5, N-(1-(4-((4-([1,2,4]triazolo[1,5-a]pyridin-7-yloxy)-3-methylphenyl)amino)pyrrolo[2,1-f][1,2,4]triazine-5-carbonyl)piperidin-4-yl)acrylamide]",1500 to 5000 nM,200 to 500 nM,< 200 nM,200 to 500 nM,1500 to 5000 nM
"C=CC(=O)N1CCN(c2ccn3ncnc(Nc4ccc(Oc5ccn6ncnc6c5)c(C)c4)c23)CC1 [Example 6, 1-(4-(4-((4-([1,2,4]triazolo[1,5-a]pyridin-7-yloxy)-3-methylphenyl)amino)pyrrolo[2,1-f][1,2,4]triazin-5-yl)piperazin-1-yl)prop-2-en-1-one]",–,< 200 nM,< 200 nM,< 200 nM,500 to 1500 nM
"C=CC(=O)N1CCC(c2ccn3ncnc(Nc4ccc(Oc5ccn6ncnc6c5)c(C)c4)c23)CC1 [Example 7, 1-(4-(4-((4-([1,2,4]triazolo[1,5-a]pyridin-7-yloxy)-3-methylphenyl)amino)pyrrolo[2,1-f][1,2,4]triazin-5-yl)piperidin-1-yl)prop-2-en-1-one]",–,< 200 nM,< 200 nM,< 200 nM,200 to 500 nM
"C=CC(=O)N1CCCN(c2ccn3ncnc(Nc4ccc(Oc5ccn6ncnc6c5)c(C)c4)c23)CC1 [Example 8, 1-(4-(4-((4-([1,2,4]triazolo[1,5-a]pyridin-7-yloxy)-3-methylphenyl)amino)pyrrolo[2,1-f][1,2,4]triazin-5-yl)-1,4-diazepan-1-yl)prop-2-en-1-one]",–,< 200 nM,< 200 nM,< 200 nM,500 to 1500 nM
"C=CC(=O)N1CC(c2ccn(-c3ccn4ncnc(Nc5ccc(Oc6ccn7ncnc7c6)c(C)c5)c34)n2)C1 [Example 10, 1-(3-(1-(4-((4-([1,2,4]triazolo[1,5-a]pyridin-7-yloxy)-3-methylphenyl)amino)pyrrolo[2,1-f][1,2,4]triazin-5-yl)-1H-pyrazol-3-yl)azetidin-1-yl)prop-2-en-1-one]",–,< 200 nM,200 to 500 nM,500 to 1500 nM,1500 to 5000 nM
"C=CC(=O)N1CCC(c2ccn3ncnc(Nc4ccc(Oc5ccn6ncnc6c5)c(C)c4)c23)C1 (stereo not shown) [Example 11, 1-(3-(4-((4-([1,2,4]triazolo[1,5-a]pyridin-7-yloxy)-3-methylphenyl)amino)pyrrolo[2,1-f][1,2,4]triazin-5-yl)pyrrolidin-1-yl)prop-2-en-1-one]",500 to 1500 nM,< 200 nM,< 200 nM,< 200 nM,1500 to 5000 nM
"C=CC(=O)NCCn1cc(-c2ccn3ncnc(Nc4ccc(Oc5ccn6ncnc6c5)c(C)c4)c23)cn1 [Example 13, N-(2-(4-(4-((4-([1,2,4]triazolo[1,5-a]pyridin-7-yloxy)-3-methylphenyl)amino)pyrrolo[2,1-f][1,2,4]triazin-5-yl)-1H-pyrazol-1-yl)ethyl)acrylamide]",1500 to 5000 nM,< 200 nM,< 200 nM,200 to 500 nM,1500 to 5000 nM
"Cc1cc(Nc2ncnn3ccc(C4CN(C(=O)/C=C/CN5CCCCC5)C4)c23)ccc1Oc1ccn2ncnc2c1 [Example 94, (E)-1-(3-(4-((4-([1,2,4]triazolo[1,5-a]pyridin-7-yloxy)-3-methylphenyl)amino)pyrrolo[2,1-f][1,2,4]triazin-5-yl)azetidin-1-yl)-4-(piperidin-1-yl)but-2-en-1-one]",–,< 200 nM,< 200 nM,< 200 nM,1500 to 5000 nM
"Cc1cc(Nc2ncnn3ccc(C4CN(C(=O)/C=C/CN5CCCC5)C4)c23)ccc1Oc1ccn2ncnc2c1 [Example 97, (E)-1-(3-(4-((4-([1,2,4]triazolo[1,5-a]pyridin-7-yloxy)-3-methylphenyl)amino)pyrrolo[2,1-f][1,2,4]triazin-5-yl)azetidin-1-yl)-4-(pyrrolidin-1-yl)but-2-en-1-one]",–,< 200 nM,< 200 nM,< 200 nM,1500 to 5000 nM
"Cc1cc(Nc2ncnn3ccc(C4CN(C(=O)/C=C/CN(C)C)C4)c23)ccc1Oc1ccc2c(c1)ncn2C [Example 101, (E)-4-(dimethylamino)-1-(3-(4-((3-methyl-4-((1-methyl-1H-benzo[d]imidazol-5-yl)oxy)phenyl)amino)pyrrolo[2,1-f][1,2,4]triazin-5-yl)azetidin-1-yl)but-2-en-1-one]",–,< 200 nM,< 200 nM,< 200 nM,1500 to 5000 nM
"C=CC(=O)N1CCC(c2ccn3ncnc(Nc4ccc(Oc5ccc6c(c5)ncn6C)c(C)c4)c23)CC1 [Example 113, 1-(4-(4-((3-methyl-4-((1-methyl-1H-benzo[d]imidazol-5-yl)oxy)phenyl)amino)pyrrolo[2,1-f][1,2,4]triazin-5-yl)piperidin-1-yl)prop-2-en-1-one]",–,< 200 nM,< 200 nM,< 200 nM,500 to 1500 nM

# More lines, now with the values ahead:
IC50 [1],IC50 [2],GI50 [3],GI50 [4],GI50 [5],Structure (SMILES)
1500 to 5000 nM,–,–,–,–,"Cc1cc(Nc2ncnn3ccc(C4CCN(C(=O)/C=C/CN(C)C)C4)c23)ccc1Oc1ccn2ncnc2c1 (single isomer, unassigned) [Example 100]"
500 to 1500 nM,–,–,–,–,"Cc1cc(Nc2ncnn3ccc(C4CCCN(C(=O)/C=C/CN(C)C)C4)c23)ccc1Oc1ccn2ncnc2c1 (single isomer, unassigned) [Example 107]"
1500 to 5000 nM,–,–,–,–,"Cc1cc(Nc2ncnn3ccc(C4CCCN(C(=O)/C=C/CN(C)C)C4)c23)ccc1Oc1ccn2ncnc2c1 (single isomer, unassigned) [Example 108]"
200 to 500 nM,–,–,–,–,"Cc1cc(Nc2ncnn3ccc(C4CCCN(C(=O)/C=C/CN(C)C)CC4)c23)ccc1Oc1ccn2ncnc2c1 (single isomer, unassigned) [Example 110]"
–,< 200 nM,< 200 nM,< 200 nM,1500 to 5000 nM,"Cc1cc(Nc2ncnn3ccc(C4CN(C(=O)/C=C/CN(C)C)C4)c23)ccc1Oc1ccn2ncnc2c1 [Example 1, (E)-1-(3-(4-((4-([1,2,4]triazolo[1,5-a]pyridin-7-yloxy)-3-methylphenyl)amino)pyrrolo[2,1-f][1,2,4]triazin-5-yl)azetidin-1-yl)-4-(dimethylamino)but-2-en-1-one]"
–,< 200 nM,< 200 nM,< 200 nM,1500 to 5000 nM,"C=CC(=O)N1CCCC(c2ccn3ncnc(Nc4ccc(Oc5ccn6ncnc6c5)c(C)c4)c23)C1 (stereo not shown) [Example 12, 1-(3-(4-((4-([1,2,4]triazolo[1,5-a]pyridin-7-yloxy)-3-methylphenyl)amino)pyrrolo[2,1-f][1,2,4]triazin-5-yl)piperidin-1-yl)prop-2-en-1-one]"
–,< 200 nM,< 200 nM,200 to 500 nM,1500 to 5000 nM,"Cc1cc(Nc2ncnn3ccc(C4CCN(C(=O)/C=C/CN(C)C)C4)c23)ccc1Oc1ccn2ncnc2c1 (stereo not shown) [Example 98, (E)-1-(3-(4-((4-([1,2,4]triazolo[1,5-a]pyridin-7-yloxy)-3-methylphenyl)amino)-pyrrolo-[2,1-f][1,2,4]triazin-5-yl)pyrrolidin-1-yl)-4-(dimethylamino)but-2-en-1-one]"
